Experimental data taken from US20070202547A1, “Methods For Detecting Substances Which Bind To The Amyloid Precursor Protein Or Beta Amyloid Fragments, And Binding Compounds” (priority 2004, published 2007).

Columns and labels:
BACE1 = assay: BACE cleavage of the full length APP; format: biochemical; settings: result in words
EV-amyloid = target: T1, EV-amyloid (Homo sapiens, UniProt P05067, A673V/D672E); assay: Antibody binding to EV-amyloid, ALPHA sandwich assay; settings: 37° C., 1 hour; G2-10 and anti-NH2-EVEFR antibodies
T1 construct: An Aβ variant peptide similar to Aβ 1-40
Text: Compounds interacting with secretase or antibody binding to the Aβ domain of APP (or an APP variant) nay also be expected to interact with Aβ or related amyloidogenic peptides. An Aβ variant peptide similar to Aβ 1-40, but with Glu and Val replacing the N-terminal two amino acids (hereafter referred to as “EV-amyloid”), as described in WO 02/094985 and US 2003/0200555 A1, was used to assess interactions between benzofurans and amyloid peptide. As with full length APP variant in Example 5, masking of antibody binding sites was used to assay the potential interactions.
The assay was carried out as follows:
• 1. A master mix of EV-amyloid peptide in binding buffer was made as follows: 10650 μL 0.1% bovine serum albumin in phosphate buffered saline, 1200 μL 10× Protease Inhibitor cocktail (Roche, cat # 1836153), 30 μL EV amyloid peptide (4 μM in DMSO). • 2. […] Interaction between EV amyloid and antibody was assessed by quantification of the EV amyloid peptide by antibody sandwich assay using ALPHA detection. • 7. […]
The solutions were incubated at room temperature for 1 hour prior to addition to the EV-amyloid binding reaction. • 8. […] The plate was incubated overnight, in the dark, at room temperature, and antibody binding to EV-amyloid was detected via ALPHA Quest.

BACE2 [1] = target: T2, BACE2 (Homo sapiens, UniProt P05067, A673V/D672E/K670N/M671F); assay: BACE2 cleavage of APP at the beta-secretase cleavage site (ALPHA); format: biochemical; settings: MBP-biotinylated APP fusion protein with NFEV site, pH 4.5, 30 minutes
T2 construct: IC50, BACE2 cleavage of APP at the beta-secretase cleavage site; other: MBP-biotinylated APP fusion protein with NFEV s; activity against BACE2 cleavage of APP at the beta-secretase position; other: result in words; biotin label
Procedure: (§1) The effect of Examples 1-4 on cleavage of APP at the beta-secretase cleavage site was assayed as follows:
(§2) • 25 μL 0.2 M Sodium Acetate, pH 4.5 • 10 μL 10× protease inhibitor cocktail (Roche, cat # 1836153) • 10 μL Bovine Serum Albumin (1 mg/mL solution) • 4 μL 5% CHAPS • 1 μL EDTA (150 mM, pH 4.5) • 2 μL DF • 4 μL MBP(Maltose binding protein)—biotininylated APP fusion protein containing the NFEV BACE cleavage site (bacterially expressed, 10 μM solution) • 1 μL DMSO or compound dissolved in DMSO • 2 μL BACE2 (CHO cell expressed protein, 250 nM) • 41 μL distilled water The reactions were incubated at 37° C. for 30 minutes, and were then quenched with 4 μL 1 M TrisHCl, pH 8.0. Detection of MBP Biotin APP(NF) Cleavage Product using ALPHA ALPHA Assay Mix was Prepared as Follows: • 20 μL Streptavidin Donor Beads (from AlphaScreen General IgG (Protein A) Detection Kit Perkin Elmer Life Sciences); 10,000 pts (Part Number 6760617M) • 20 μL Protein A Acceptor beads (from AlphaScreen General IgG (Protein A) Detection Kit Perkin Elmer Life Sciences); 10,000 pts (Part Number 6760617M) • 3.7 μL Affinity purified anti-NF antibody (203 μg/mL) (described in WO 02/094985) • 4.5 mL 0.1% BSA in PBS • 4 μL of quenched reaction mixture was combined with 46 μL of the assay mix. The reactions were incubated at room temperature overnight and read using the ALPHAQuest plate reader.

BACE2 [2] = target: T3, BACE2 (Homo sapiens, UniProt P05067, K670N/M671F/D672E/A673V); assay: as above; format: biochemical; settings: result in words
T3 construct: IC50, BACE2 cleavage of APP at the beta-secretase cleavage site; other: MBP-biotinylated APP fusion protein with NFEV s; activity against BACE2 cleavage of APP at the beta-secretase position; other: result in words; biotin label
Procedure: as §1, §2

Compound | inhibition of BACE (BACE1) cleavage/processing of full length APP (BACE1) | inhibition of antibody binding to EV amyloid (EV-amyloid) | IC50 (BACE2 [1]) | activity against BACE2 cleavage of APP at the beta-secretase position (BACE2 [2])
O=C(O)COc1cc2c(cc1CCCOc1ccccc1)OC(CCc1ccccc1)C2 (centres unmarked) [Example 1, {[6-(3-phenoxypropyl)-2-(2-phenylethyl)-2,3-dihydro-1-benzofuran-5-yl]oxy} acetic acid] | inhibit both BACE processing of APP | approximately 40% | 9 µM | capable of inhibiting BACE2 cleavage of APP at the beta-secretase position with similar effectiveness to their inhibition of BACE1 cleavage at the same site
O=C(O)COc1cc2c(cc1CCCOc1ccccc1Cl)OC(CCc1ccccc1)C2 (centres unmarked) [Example 2, {[6-[3-(2chlorophenoxy)propyl)-2-(2-phenylethyl)-2,3-dihydro-1-benzofuran-5-yl]oxy} acetic] | inhibit both BACE processing of APP | approximately 40% | 4 µM | capable of inhibiting BACE2 cleavage of APP at the beta-secretase position with similar effectiveness to their inhibition of BACE1 cleavage at the same site
